US20090087916A1, “Assay method for identifying drug candidate” (AnGesMG, Inc., priority 2004, published 2009)

Assays:
Aβ (1-42) fibril = Aβ (1-42) fibril (Homo sapiens, UniProt P05067); test: in vitro sink-like Aβ assay: Aβ dissolved from fibril in presence of compound, Aβ ELISA of supernatant; type: biochemical; conditions: Aβ (1-42) fibril pellets, PBS containing compound, 37° C. for one day, supernatant by Aβ ELISA; control (PBS without compound) = 1
Protocol: Sandwich ELISA for Aβ (1-40) and Aβ (1-42) was performed using an Aβ (1-40) ELISA kit and Aβ (1-42) ELISA kit (Biosoure, IBL, Signet Laboratories and the like). […] The peptide was incubated for several days at 37° C. until fibrillization was completed. After centrifugation at 22° C. (15,000×g, 10 min), the supernatant was removed. The obtained pellets were gradually and carefully washed 3 times with PBS. Fresh PBS (20 μl) was carefully and gradually added to the pellets. The sample was incubated at 37° C. for one day. After centrifugation (15,000×g, 10 min) at 22° C., the supernatant was removed. […] The sample was incubated at 37° C. for one day.

tau = conditions: Taniguchi et al., J Biol Chem 2005; cited from earlier work
Aβ = conditions: in vitro; Ono, Biochim Biophys Acta 2004; cited from earlier work
[1] = tested on: protease-resistant protein (PrP-res); conditions: cited from earlier work

Aβ (1-42) fibril, sequence (P05067 672-713): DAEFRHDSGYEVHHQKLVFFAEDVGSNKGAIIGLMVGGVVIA

| Molecule | average (ratio of Aβ dissolved from fibril when the control is 1) (Aβ (1-42) fibril) | inhibition of tau filament formation (tau) | inhibitory action on the formation or elongation of Aβ (Aβ) | inhibition of formation of protease-resistant protein (PrP-res) [1] |
| --- | --- | --- | --- | --- |
| CNc1ccc2nc3ccc(=[N+](C)C)cc-3sc2c1.[Cl-] [azure B] | 2.1701 | inhibit tau filament formation |  |  |
| CCN(CCO)c1ccc(/N=N/c2sc3cc(OC)ccc3[n+]2C)cc1 [basic blue 41] | 2.299 |  |  |  |
| COc1cc(/C=C/C(=O)CC(=O)/C=C/c2ccc(O)c(OC)c2)ccc1O [curcumin] | 2.4691 |  |  |  |
| O=c1c(O)c(-c2cc(O)c(O)c(O)c2)oc2cc(O)cc(O)c12 [myricetin] | 1.3196 |  | in vitro inhibitory action on the formation or elongation of Aβ |  |
| O=C(OC[C@H]1O[C@@H](OC(=O)c2cc(O)c(O)c(OC(=O)c3cc(O)c(O)c(O)c3)c2)[C@H](OC(=O)c2cc(O)c(O)c(OC(=O)c3cc(O)c(O)c(O)c3)c2)[C@@H](OC(=O)c2cc(O)c(O)c(OC(=O)c3cc(O)c(O)c(O)c3)c2)[C@@H]1OC(=O)c1cc(O)c(O)c(OC(=O)c2cc(O)c(O)c(O)c2)c1)c1cc(O)c(O)c(OC(=O)c2cc(O)c(O)c(O)c2)c1 [tannic acid] | 1.3969 |  | in vitro inhibitory action on the formation or elongation of Aβ |  |
| ferric dehydroporphyrin IX | 1.4124 | inhibits tau filament formation |  | inhibit in vitro the formation of a protease-resistant protein (PrP-res) |
